Experimental data: patent publication US20260183302A1, “PDK1 REGULATORY COMPOUND AND COMPOSITION CONTAINING THE SAME” (PROVIBIO CO., LTD., priority 2024, published 2026)

Columns and labels:
[1] = test system: HCT-116 colon cancer cell lines; assay: Matrigel Invasion Assay on HCT-116 colon cancer cell line; format: cell-based, human; conditions: HCT-116, Matrigel, 24 hours treatment, vs DMSO
Procedure: To evaluate the metastasis inhibitory efficacy of the compounds of the present invention on HCT-116 colon cancer cell lines, an Invasion Assay using Matrigel was performed to assess the cells' invasion ability.
First, Matrigel was thawed on ice in RPMI-1640 medium without FBS, then diluted with DMEM at a ratio of 1:20.
The diluted Matrigel mixture was applied to the upper chamber at 100 μl per well, and 750 μl of RPMI-1640 without FBS was added to the lower chamber.
The plates were then incubated at 37° C. for 1 hour to allow the Matrigel to solidify.
After coating, the Matrigel mixture in the upper chamber was removed using a pipette, and the chamber was washed with RPMI without FBS.
Human-derived colorectal cancer cell line HCT-116, obtained from the Korean Cell Bank, was cultured in RPMI-1640 medium containing 10% FBS.
Following stabilization, the cells were harvested using Trypsin-EDTA treatment, centrifuged at 1,200 rpm for 3 minutes, the supernatant was removed, and the cells were resuspended in the same medium, the medium in the lower chamber was replaced with 750 μl of RPMI-1640 supplemented with 10% FBS, and the cells were seeded into the upper chamber at a density of 5×10^4 cells/well.
The cells were cultured for 24 hours after attachment, and then the compounds according to the present invention (G078, G085, G086, G088, G089, PBK-2024-010, PBK-2025-010, PBK-2025-013, PBK-2025-016) and the control substance DMSO were diluted and added to the upper chamber after removing the medium.
Additionally, the medium in the lower chamber was replaced with fresh RPMI-1640 containing FBS, and the culture was continued.
After an additional 24 hours, the medium was removed, and 1 ml of methanol was added for 10 minutes to fix the cells.
Subsequently, 1 ml of Hematoxylin was added and reacted for 5 minutes, followed by 1 ml of Eosin, which was reacted for 30 seconds. The sample was then washed with distilled water (DW).
After staining was complete, any remaining cells in the upper chamber were removed. Finally, the infiltrated cells were observed under a microscope, photographed, and the degree of infiltration was analyzed.

[2] = test system: T cells isolated from mouse spleens; assay: T cell proliferation inhibition (CFSE flow cytometry, anti-CD3/anti-CD28 stimulation); format: cell-based, C57BL/6 mice; conditions: three days
Procedure: To verify the T cell proliferation inhibitory effect of the compounds according to the present invention, the following experiment was performed based on flow cytometry analysis using carboxyfluorescein diacetate succinimidyl ester (CFSE), a fluorescent dye that binds to intracellular molecules via covalent bonds.
Spleens were extracted from 7-week-old C57BL/6 mice, ground, and then separated into single cells using a strainer (40 μm pore size, SPL). Red blood cells were removed using ACK (Ammonium-Chloride-Potassium) lysis buffer to isolate white blood cells.
Finally, using a MACS Magnetic Stand and LS column, T cells were isolated from the spleen.
The T cells isolated from the spleen were resuspended in 1 mL of free medium (RPMI-1640+200 U/mL penicillin+200 μg/mL streptomycin), and 0.3 μL of CFSE (10 mM) was added. The mixture was incubated at 37° C. for 5 minutes.
Free medium (10 mL) was added to stop the reaction, and the cells were centrifuged to obtain the cell pellet.
RPMI 1640 medium containing 10% FBS, 100 U/mL penicillin, 100 μg/mL streptomycin, and resuspended the cells. The cells were then seeded into a 96-well plate at a density of 2× 10^5 cells per well and activated with CD3 and CD28 antibodies (0.5 μg/mL each) to activate T cells.
The compound diluted in DMSO was added at concentrations of 10 nM, 100 nM, 1 μM, 10 μM, 30 μM, and 50 μM, with three wells per concentration, and cultured at 37° C. and 5% CO2 for three days. The cells were then analyzed using a FACS Canto instrument.
The proliferation inhibition rate (%) was calculated using the following formula: […]

[3] = test system: Human B Lymphocyte cell line, SU-DHL-8; assay: Relative cell viability, SU-DHL-8 (CCK-8); format: cell-based; conditions: 48 hours, untreated (DMSO) = 100%
Procedure: Human-derived B lymphoma cell line SU-DHL-8 (Cat. #CRL-2961) purchased from ATCC was cultured in RPMI-1640 medium containing 10% FBS, 100 U/mL penicillin, and 100 μg/mL streptomycin.
The cell culture medium was then harvested, centrifuged at 1,300 rpm for 5 minutes, and the supernatant was removed. The cells were resuspended in the same medium and dispensed into a 96-well plate (Costar 96-well cell culture plate, Corning) at 90 μL per well, resulting in the conditions specified in Table 5.
Then, 10 μL of CCK-8 was added to each well, and the plates were incubated again at 37° C. in a 5% CO2 incubator for 4 hours.
In other words, when the survival rate of untreated cells (DMSO) is set at 100%, the relative cell survival rate in each group treated with the drug at different concentrations is indicated.

Compound	number of infiltrated cells (invasion) [1]	Proliferation inhibition rate (%) ([2]; concentration 100 nM)	Proliferation inhibition rate (%) ([2]; concentration 1 μM)	Proliferation inhibition rate (%) ([2]; concentration 10 μM)	Proliferation inhibition rate (%) ([2]; concentration 30 μM)	Proliferation inhibition rate (%) ([2]; concentration 50 μM)	Relative cell viability (%) ([3]; SU-DHL-8, 1 μM)	Relative cell viability (%) ([3]; SU-DHL-8, 10 μM)	Relative cell viability (%) ([3]; SU-DHL-8, 30 μM)	Relative cell viability (%) ([3]; SU-DHL-8, 50 μM)	also measured
O=C(NCCCCCCCCCCCCN1CCN2CCCC2C1)c1cccnc1 (stereo not shown) [Compound 23, N-(12-(hexahydropyrrolo[1,2-a]pyrazin-2 (1H)-yl)dodecyl) nicotinamide]	reduction in the number of infiltrated cells	–	–	–	–	–	–	–	–	–	–
Nc1ncccc1C(=O)NCCCCCCCCCCCCN1CCNCC1 [Compound 5, 2-Amino-N-(12-(piperazin-1-yl)dodecyl)-nicotinamide]	reduction in the number of infiltrated cells	–	–	–	–	–	–	–	–	–	–
CC1(C)CCN(CCCCCCCCCCCCNC(=O)c2cccnc2N)C1 [Compound 22, 2-Amino-N-(12-(3,3-dimethylpyrrolidin-1-yl)dodecyl) nicotinamide]	–	100.00%	100.00%	100.00%	100.00%	100.00%	6.46%	2.85%	2.45%	1.67%	Proliferation inhibition rate (%) ([2]; concentration 10 nM): −0.80%
CN1CCN(CCCCCCCCCCCCNC(=O)c2cccnc2F)CC1 [Compound 121, 2-fluoro-N-(12-(4-methylpiperazin-1-yl)dodecyl) nicotinamide]	–	0.00%	0.00%	30.00%	100.00%	100.00%	34.89%	28.99%	29.04%	31.11%	Proliferation inhibition rate (%) ([2]; concentration 10 nM): 0.00%
CC1CCN(CCCCCCCCCCCCNC(=O)c2cccnc2N)C1 (stereo not shown) [Compound 24, 2-Amino-N-(12-(3-methylpyrrolidin-1-yl)dodecyl) nicotinamide]	–	100.00%	100.00%	100.00%	100.00%	100.00%	8.38%	1.65%	0.62%	–	–
Nc1ncccc1C(=O)NCCCCCCCCCCCCN1CCC(F)C1 (stereo not shown) [Compound 26, 2-Amino-N-(12-(3-fluoropyrrolidin-1-yl)dodecyl) nicotinamide]	–	100.00%	100.00%	100.00%	100.00%	100.00%	1.70%	1.04%	0.05%	–	–
COC1CCN(CCCCCCCCCCCCNC(=O)c2cccnc2N)C1 (stereo not shown) [Compound 126, 2-amino-N-(12-(3-methoxypyrrolidin-1-yl)dodecyl) nicotinamide]	–	100.00%	100.00%	100.00%	100.00%	100.00%	–	–	–	–	Proliferation inhibition rate (%) ([2]; concentration 10 nM, listed as K-PB-48, 0.01 µM): 0.00%; Relative cell viability (%) ([3]; SU-DHL-8, 1 μM, listed as K-PB-48, 1 µM): 33.03%; Relative cell viability (%) ([3]; SU-DHL-8, 10 μM, listed as K-PB-48, 10 µM): 31.98%; Relative cell viability (%) ([3]; SU-DHL-8, 30 μM, listed as K-PB-48, 30 µM): 32.32%; Relative cell viability (%) ([3]; SU-DHL-8, 50 μM, listed as K-PB-48, 50 µM): 30.44%
12-(4-hydroxypiperazin-1-yl)dodecyl-N-(6-aminopurazin-2-yl) carboxamide [Compound 10]	reduction in the number of infiltrated cells	100.00%	100.00%	100.00%	100.00%	100.00%	–	–	–	–	Proliferation inhibition rate (%) ([2]; concentration 10 nM): 100.00%
Cl.O=C(NCCCCCCCCCCCCN1CCNCC1)c1ccc(-c2ccccc2)o1 [Compound 90, 5-Phenyl-N-(12-(piperazin-1-yl)dodecyl) furan-2-carboxamide hydrochloride]	–	–	–	100.00%	100.00%	100.00%	7.19%	5.94%	2.48%	1.94%	–
C[C@H]1CNCCN1CCCCCCCCCCCCNC(=O)c1cccnc1N.Cl [Compound 37, (S)-2-Amino-N-(12-(2-methylpiperazin-1-yl)dodecyl) nicotinamide hydrochloride]	–	–	100.00%	100.00%	100.00%	100.00%	6.38%	4.45%	3.17%	2.32%	–
Nc1ncccc1C(=O)NCCCCCCCCCCCCN1CC(F)C1 [Compound 52, 2-Amino-N-(12-(3-fluoroazetidin-1-yl)dodecyl)nicotinamide]	reduction in the number of infiltrated cells	–	–	–	–	–	–	–	–	–	–
COC1CCN(CCCCCCCCCCCCNC(=O)c2cccnc2N)C1 (stereo not shown) [Compound 32, 2-Amino-N-(12-(3-methoxypyrrolidin-1-yl)dodecyl) nicotinamide]	–	–	–	–	–	–	–	–	–	–	Proliferation inhibition rate (%) ([2]; concentration 10 nM, listed as PBK-2024-024, 0.01 µM): 0.29%; Relative cell viability (%) ([3]; SU-DHL-8, 1 μM, listed as PBK-2024-024, 1 µM): 3.48%; Relative cell viability (%) ([3]; SU-DHL-8, 10 μM, listed as PBK-2024-024, 10 µM): 3.01%; Relative cell viability (%) ([3]; SU-DHL-8, 30 μM, listed as PBK-2024-024, 30 µM): 1.97%; Relative cell viability (%) ([3]; SU-DHL-8, 50 μM, listed as PBK-2024-024, 50 µM): 1.45%
